Measured values from patent publication US10973822B2, “Combination therapy for treatment of hematological cancers and solid tumors” (Celgene Corporation, priority 2015, dated 2021).

Experiments:
[1] = test system: LPS-stimulated hPBMC and human whole blood; assay: Cytokine modulation in LPS-stimulated hPBMC and human whole blood; format: cell-based
Text: TNF-α is an inflammatory cytokine produced by macrophages and monocytes during acute inflammation. TNF-α is responsible for a diverse range of signaling events within cells. TNF-α may play a pathological role in cancer. Without being limited by theory, one of the biological effects exerted by Compound A is the reduction of synthesis of TNF-α. Compound A enhances the degradation of TNF-α mRNA.

[2] = test system: murine liver cancer cell line (BNL-1MEA); assay: Orthotopic HCC (liver cancer) model; format: in vivo, mice; conditions: Compound A in combination with anti-CTLA-4 antibody; 22 days of treatment; FIG. 1
Protocol: The effects of Compound A in combination with checkpoint inhibitors were investigated in an orthotopic HCC model. The orthotopic HCC model was established by injecting about 2×10^5 murine liver cancer cell line (BNL-1MEA) cells into the sub-capsular area of the left liver lobe of male BALB/c or SCID mice at age of 6-7 weeks. Mice were randomized to different treatment groups on day 6 after tumor implantation. Tumor volumes were measured after 22 days of treatment with Compound A alone, the checkpoint inhibitor alone, and Compound A in combination with the checkpoint inhibitor by using the following formula: volume [mm^3]=[width]^2×length×0.5. Tumor tissues were cut into small pieces, followed by incubation with HBSS containing collagenase type I (0.05 mg/ml), collagenase type IV (0.05 mg/ml), hyaluronidase (0.025 mg/ml), DNase (0.01 mg/ml) and soybean trypsin inhibitor (1 mg/ml) (all from Sigma-Aldrich) for 15 minutes. TILs were recovered by using Ficoll-Paque gradient and subjected to lymphocyte subpopulations analysis by flow cytometry (FACScan Caliber, Becton Dickinson; data processed by using the […] Software, BD Biosciences Pharmingen). CD4+ T cells, CD8+ T cells, NK cells, or NKT cells were determined by double staining with specific antibodies recognizing murine CD3 (clone 145-2C11), CD4 (cone GK1.5), CD8 (clone 53-6.7), or Pan-NK (clone DX5)(BD Biosciences Pharmingen). […]

[3] = test system: SEB-stimulated PBMC; assay: 5 day SEB-stimulated PBMC assay (IL-2 ELISA); format: cell-based, human; conditions: for IL-2 secretion compared to either single agent: 5 days
Protocol: In one exemplary study, PBMC cells were pretreated with Compound A for 1 hour, then SEB/CPI were added for 5 days, IL-2 elisa on day 5. The results are shown in FIG. 2A (Compound A in combination with nivolumab), FIG. 2B (Compound A in combination with a surrogate commercial anti-PD-1 antibody from BioLegend), and FIG. 2C (Compound A in combination with a surrogate commercial anti-PD-L1 antibody from BioLegend).
In another exemplary study, Compound A treated PBMCs from healthy donors were stimulated with 10 pg/ml of SEB (ThermoFisher Scientific) followed by addition of nivolumab (obtained from Blue Door Pharma), anti-PD1 (anti-human CD279 clone EH12.2H7, obtained from BioLegend, Cat #329926, lot B194623), and anti-PD-L1 (anti-human CD274 (B7-H1) clone 29E.2A3, obtained from BioLegend, Cat #329716, lot B197650) blocking antibodies. After 5 days of incubation, supernatants were collected and an ELISA for IL-2 (BD Biosciences) was utilized to examine secreted IL-2.

[4] = test system: CD4+ T cells co-cultured with monocyte-derived DC; assay: Mixed lymphocyte reaction (MLR) assay; format: cell-based, human; conditions: for IL-2 secretion compared to either single agent: 48 hours
Protocol: In one exemplary study, monocytes were isolated from buffy coat using Easy Sep kit (StemCell Technologies) and cultured in RPMI supplemented with 10% FBS, IL-4, and GM-CSF for 7 days. On day 7, CD4+ T cells were isolated from leukopak using Easy Sep kit (StemCell Technologies) and co-cultured with Monocyte-derived DC (MDC) using a 10:1 ratio. Secreted IL-2 was quantified by ELISA at 48 hours and IFNγ was measured at 5 days. Throughout the experiment, surface marker expression was determined by flow cytometry. The results are shown in FIG. 3A (IL-2, 10 nM Compound A), FIG. 3B (IL-2, 100 nM Compound A), and FIG. 4A (IFNγ, 100 nM). Compound A in combination with nivolumab enhanced IL-2 and IFNγ secretion in the mixed lymphocyte reaction. In another exemplary study, monocytes were isolated from healthy donor buffy coat (Stem Cell Technologies) and cultured with 500 U/ml IL-4 and 250 U/ml GM-CSF (R&D Systems) for 7 days until the monocytes differentiated into dendritic cells (DC) by culturing with media containing a cocktail of IL-4 and GM-CSF for 7 days. On day 7, CD4^+ T cells from a different healthy donor were isolated from a leukopak (Stem Cell Technologies). The DC and T cells were mixed at a ratio of 1:10 and co-cultured for 5 days with Compound A and nivolumab (obtained from Blue Door Pharma) or anti-PD-L1 (anti-human CD274 (B7-H1) clone 29E.2A3, obtained from BioLegend, Cat #329716, lot B197650). Supernatants were harvested for IL-2 ELISA at 48 hours (R&D Systems) and for IFNγ ELISA at 5 days (Thermo Fisher Scientific). Monocytes, DC, T cells, and mixed lymphocytes were stained for flow cytometric analysis of CD14, HLA-DR, CD80, CD86, CD83, CD40, CD3, PD-1, PD-L1 surface expression markers throughout the duration of the experiment.

[5] = test system: anti-CD3/CD28 stimulated PBMCs (NK, NKT, CD4+ and CD8+ T cell); assay: Lymphocyte proliferation assay; format: cell-based, human; conditions: combination of Compound A with nivolumab, 6 days
Protocol: To further explore immune activation resulting from the combination of Compound A and nivolumab, proliferation of immune cell subsets including NK, NKT, CD4+ and CD8+ T cell was examined. CellTrace Violet (Thermo Fisher) labeled PBMCs from healthy volunteers were treated with Compound A and nivolumab in combination or as single agent, and stimulated with soluble anti-CD3/CD28 (Stem Cell Technologies) for 6 days. Cells were collected and flow cytometry was performed to assay for surface expression of CD3, CD4, CD8, and CD56 (BD Biosciences). Dead cells were excluded by live/dead fixable stain (ThermoFisher Scientific). Prior to flow cytometry, CountBright beads (Thermo Fisher Scientific) were added to examine changes in absolute cell count.

[6] = test system: JHH4, a PD-L1 positive HCC cell line; assay: PBMC mediated natural cytotoxicity against JHH4; format: cell-based, human; conditions: p<0.05, FIG. 6
[7] = test system: CD4+ and CD8+ T cells and autologous CLL tumor cells; assay: Immunological synapse bioassay in CLL cells; format: cell-based, human
[8] = test system: acute myeloid leukemia (AML) at relapse; conditions: administered alone; cited from earlier work
[9] = test system: advanced melanoma; conditions: patients with advanced melanoma; Hodi et al. 2010; cited from earlier work
[10] = test system: DLBCL, FL and T-cell lymphomas; conditions: monotherapy; cited from earlier work
[11] = Compound A 0.01-1 μM for 24 h, compared to vehicle treated cells, P<0.01
[12] = synapse with PD-L1+ tumor cells

Cc1nc2cccc(N)c2c(=O)n1C1CCC(=O)NC1=O (centres unmarked) [Compound A, 3-(5-amino-2-methyl-4-oxo-4H-quinazolin-3-yl)-piperidine-2,6-dione]
IL-1β inhibition [1]: potently inhibits
IL-10 stimulation [1]: stimulates
TNF-α inhibition [1]: markedly inhibits
anti-tumor efficacy in term of tumor volume [2]: significant synergistic anti-tumor efficacy
IL-2 secretion compared to either single agent ([3]; 40 nM Compound A with anti-PD-1 blocking antibody, synergy above 1 μg/ml anti-PD-1, FIG. 2E): synergistic IL-2 secretion
IL-2 secretion compared to either single agent ([3]; 40 nM Compound A with anti-PD-L1 blocking antibody, synergy above 10 μg/ml anti-PD-L1, FIG. 2F): synergistic IL-2 secretion
IL-2 secretion compared to either single agent ([3]; 40 nM Compound A with nivolumab, synergy between 0.1-100 μg/ml nivolumab, FIG. 2D): synergistic IL-2 secretion
IL-2 secretion ([3]; Compound A pretreatment 1 hour, then SEB/CPI (nivolumab, anti-PD-1 or anti-PD-L1) for 5 days, FIG. 2A-2C): synergistically enhanced IL-2 secretion
IL-2 secretion ([4]; Compound A (10 nM, 100 nM) in combination with nivolumab, ELISA at 48 hours, FIG. 3A, 3B): enhanced
IFNγ secretion ([4]; Compound A (100 nM) in combination with nivolumab, 5 days, FIG. 4A): enhanced
IL-2 secretion compared to either single agent ([4]; Compound A with anti-PD-L1, synergy at 1-10 μg/ml anti-PD-L1, FIG. 3D): synergistic IL-2 secretion
IFNγ secretion ([4]; Compound A with anti-PD-L1 between 0.1-10 μg/ml, 5 days of co-culture, FIG. 4C): increased synergistically
IFNγ secretion ([4]; Compound A with nivolumab between 0.1-10 μg/ml, 5 days of co-culture, FIG. 4B): increased synergistically
IL-2 secretion compared to either single agent ([4]; Compound A with nivolumab, synergy between 0.01-10 μg/ml nivolumab, FIG. 3C): synergistic IL-2 secretion
proliferation in NK cells (absolute cell numbers) ([5]; FIG. 5A): enhanced proliferation
proliferation in NKT cells (absolute cell numbers) ([5]; FIG. 5B): enhanced proliferation
proliferation in CD4+ T-cells (absolute cell numbers) ([5]; FIG. 5C): but not CD4+ T-cells
proliferation in CD8+ T-cells (absolute cell numbers) ([5]; FIG. 5D): enhanced proliferation
PBMC-mediated cell killing of HCC cell line JHH4 ([6]; 50 nM Compound A combined with 1 μg/ml anti-PD-L1): significantly enhanced
PBMC-mediated cell killing of HCC cell line JHH4 ([6]; 50 nM Compound A combined with 1-10 μg/ml nivolumab): significantly enhanced
formation of F-actin immune synapses (area size) [7, 11]: increased
number of T cells recognizing tumor cells (% conjugation formation) [7, 11]: dramatically enhanced
T cell synapse activity compared to immunotherapy alone ([7]; Compound A with anti-CTLA-4 blocking antibody, FIG. 7A): increased T cell synapse activity
T cell synapse activity compared to immunotherapy alone ([7]; Compound A with anti-PD-1 blocking antibody, FIG. 7B): increased T cell synapse activity
T cell synapse activity compared to immunotherapy alone ([7]; Compound A with anti-PD-L1 blocking antibody, FIG. 7C): increased T cell synapse activity
synapse strength (total fluorescence intensity of F-actin per T cell:APC conjugate) ([7]; P<0.01): increased significantly
recruitment of inducible co-stimulator (ICOS) to the synapse ([7]; dose-dependent, P<0.01): increased recruitment
polarized expression of CTLA-4 at the synapse [7, 12]: increased polarized expression
polarized expression of PD-1 at the synapse [7, 12]: increased polarized expression

CT-011: anti-PD-1 antibody, a humanized antibody
response in treating AML at relapse [8]: failed to show response

ipilimumab: fully human monoclonal IgG antibody that binds to CTLA-4
overall survival [9]: overall survival benefit

nivolumab: human IgG4 anti-PD-1 monoclonal antibody
antitumor activity [10]: has shown antitumor activity
